From patent publication US4873346A, “Substituted benzothiazoles, benzimidazoles, and benzoxazoles” (The Upjohn Company, priority 1985, dated 1989) come the findings set out here.

Assay [1] has as its system SRS-A formation. As to the kind of experiment: SRS-A inhibition in rat mononuclear cells challenged with calcium ionophore. It counts as cell-based. The following applies: cysteine. As for the experimental part:
This test is conducted in rat mononuclear cells incubated in the presence of cysteine and challenged with a calcium ionophore (which induces SRS-A formation).

In assay [2] the test system is lipoxygenase. As to the kind of experiment: lipoxygenase inhibition, oxygen uptake of washed human platelets after arachidonic acid. It counts as cell-based. As to the method: Some ot the compounds of the present invention were also tested for lipoxygenase inhibition. Arachidonic acid is added to washed human platelets and the oxygen uptake is measured using oxygraph cells. A decrease of oxygen uptake versus the control cell indicates inhibition of lipoxygenase. For a full description of the procedure see, Wallach, et al., Biochim, Biophys. Acta. 231:445 (1976).

In assay [3] the test system is mucus secretion. Briefly: canine tracheal secretion model (inhibitory effect on mucus secretion). Format: in vivo. As to the method: Several of the compounds of the present invention were also tested for their inhibitory effect on mucus secretion in the canine tracheal secretion model.

Counter-ions that a name gives are not always drawn.

`C=CCNc1nc2ccc(O)cc2s1` [2-(2-propenylamino)-6-benzothiazolol, 2-(2-Propenylamino)-6-benzothiazolol]: the “inhibition of the leukotriene system (in words)” value in assay [1] is listed as “active”. The “inhibition of the lipoxygenase system (in words)” value in assay [2] is listed as “active”. Moreover, the “inhibition of mucus secretion (in words)” value in assay [3] was “caused inhibition of mucus secretion”.
As to `C=CCCCCSc1nc2ccc(O)cc2s1.O=C(O)/C=C\C(=O)O` [2-(5-hexenylthio)-6-benzothiazolol maleic acid salt], the “inhibition of mucus secretion (in words)” value in assay [3] is on record as “caused inhibition”.
The same measure, in the same setting: as for `C=CCCCCSc1nc2ccc(O)cc2[nH]1` [2-(5-hexenylthio)-H-benzimidazol-6-ol, 2-(5-Hexenylthio)-1H-benzimidazol-6-ol], the entry is “caused inhibition”.
On the same count and under the same terms, as for `CCN(CC)CCCNc1nc2ccc(O)cc2s1.Cl.Cl` [2-[[3-(Diethylamino)propyl]amino]-6-benzothiazolol Dihydrochloride], the entry is “caused inhibition”.
Same read-out and setting: as for `CCN(CC)CCCNc1nc2ccc(O)cc2s1` [2-[[3-(Diethylamino)propyl]amino]-6-benzothiazolol, hydroquinone dihydrochloride salt], the entry is “caused inhibition”.
Take `COC(=O)CCCCCNc1nc2ccc(O)cc2s1` [6-[(6-hydroxy-2-benzothiazolyl)aminohexanoic acid methyl ester]: the “inhibition on Indomethacin blocked/Arachidonic Acid (AA) induced mucus secretion” value in assay [3] (Indomethacin blocked/AA induced) was found to be 100%. Also, the “inhibition on baseline mucus secretion” value in assay [3] (baseline) is reported as 21.8%. For the same molecule, in assay [3] (hypoxia), the “inhibition on hypoxia mucus secretion” value worked out at 63.4%.
Consider `COC(=O)CCCCCSc1nc2ccc(NC(=O)CCC(=O)O)cc2s1` [6-[[6-[(3-Carboxy-1-oxopropyl)amino]-2-benzothiazolyl]thio]hexanoic acid methyl ester, tromethamine salt], for which the “inhibition of mucus secretion (in words)” value in assay [3] was “caused inhibition”.
